From patent US20240116985A1, “STAPLED PEPTIDES AND METHODS THEREOF” (priority 2020, published 2024)

Columns and labels:
[1] = CHI Log D procedure; type: physicochemical; details: for CHI Log D: pH 7.4; for chromatographic logD: pH 7.4, CHI Log D
[2] = biological target: T1, full-length B-Catenin (Uniprot ID P35222) (Homo sapiens, UniProt P35222); experiment: Alphascreen binding assay (beta-catenin / biotin-TCF4 10-53)
T1 construct: 65 nM full-length B-Catenin (Uniprot ID P35222)
T1 sequence (P35222 1-781): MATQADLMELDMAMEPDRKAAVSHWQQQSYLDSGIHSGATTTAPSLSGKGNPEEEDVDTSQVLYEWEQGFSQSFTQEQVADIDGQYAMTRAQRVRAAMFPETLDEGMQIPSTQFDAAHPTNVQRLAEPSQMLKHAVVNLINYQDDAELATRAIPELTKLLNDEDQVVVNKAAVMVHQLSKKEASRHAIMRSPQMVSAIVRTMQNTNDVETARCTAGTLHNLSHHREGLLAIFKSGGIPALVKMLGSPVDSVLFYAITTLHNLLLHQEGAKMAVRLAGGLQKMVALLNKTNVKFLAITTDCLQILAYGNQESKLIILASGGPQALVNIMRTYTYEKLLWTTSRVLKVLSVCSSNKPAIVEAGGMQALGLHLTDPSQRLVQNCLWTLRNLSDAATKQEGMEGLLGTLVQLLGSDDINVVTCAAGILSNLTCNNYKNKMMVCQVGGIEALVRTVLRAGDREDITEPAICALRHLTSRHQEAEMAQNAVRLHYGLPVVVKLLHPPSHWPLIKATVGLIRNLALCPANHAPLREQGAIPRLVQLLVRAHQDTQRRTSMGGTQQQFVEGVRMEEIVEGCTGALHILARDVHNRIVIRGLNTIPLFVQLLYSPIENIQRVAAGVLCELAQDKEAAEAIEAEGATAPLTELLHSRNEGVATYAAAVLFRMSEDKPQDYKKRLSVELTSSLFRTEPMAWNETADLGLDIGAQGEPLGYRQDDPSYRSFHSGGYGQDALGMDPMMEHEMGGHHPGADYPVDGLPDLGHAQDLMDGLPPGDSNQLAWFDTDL
Summary of the method: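 Final concentrations: 65 nM full-length human β-catenin plus 10 nM biotin-TCF4(10-53) peptide, test peptide 3-fold from 10 uM to 5 nM, preincubated 15 min at 20 °C in Tris pH 8.0/250 mM NaCl buffer. Nickel-chelate AlphaScreen donor/acceptor beads then added for 60 min in the dark; duplicate reads fitted to 1:1 binding model with Hill slope.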

Row | SMILES | CHI Log D [1] | EC50 [2] [µM] | chromatographic logD [1]
1 | CC(=O)N1CCC[C@]12CC=CCCCC1(CCCC=CCCCCCC[C@@](C)(C(=O)N[C@@H](Cc3ccc(C(F)(F)F)cc3)C(=O)N[C@@H](Cc3c[nH]c4ccccc34)C(=O)N[C@@H](CCC(N)=O)C(N)=O)NC(=O)[C@H](C(C)C)NC(=O)[C@H](Cc3ccccc3)NC(=O)[C@H](C)NC(=O)[C@H](C)NC(=O)[C@H](CC(=O)O)NC(=O)[C@H](CC(=O)O)NC1=O)NC(=O)[C@H](C)NC(=O)[C@H](CC(=O)O)NC2=O (stereo partly drawn) [I-253, Ac-PL3-Asp-Ala-B5-Asp-Asp-Ala-Ala-Phe-Val-S8-4F3MeF-Trp-Gln-NH2] | 2.214 | 3.69 | 
2 | CC(=O)N1CCC[C@]12CC=CCCCC1(CCCC=CCCCCCC[C@@](C)(C(=O)N[C@@H](Cc3cccc(Cl)c3)C(=O)N[C@@H](Cc3c[nH]c4ccccc34)C(=O)N[C@@H](CCC(N)=O)C(N)=O)NC(=O)[C@H](C(C)C)NC(=O)[C@H](Cc3ccccc3)NC(=O)[C@H](C)NC(=O)[C@H](C)NC(=O)[C@H](CC(=O)O)NC(=O)[C@H](CC(=O)O)NC1=O)NC(=O)[C@H](C)NC(=O)[C@H](CC(=O)O)NC2=O (stereo partly drawn) [I-310, Ac-PL3-Asp-Ala-B5-Asp-Asp-Ala-Ala-Phe-Val-S8-3C1F-Trp-Gln-NH2] | 2.188 | 3.24 | 
3 | CC(=O)N1CCC[C@]12CC=CCCCC1(CCCC=CCCCCCC[C@@](C)(C(=O)N[C@@H](Cc3cccc(C(F)(F)F)c3)C(=O)N[C@@H](Cc3c[nH]c4ccccc34)C(=O)N[C@@H](CCC(N)=O)C(N)=O)NC(=O)[C@H](C(C)C)NC(=O)[C@H](Cc3ccccc3)NC(=O)[C@H](C)NC(=O)[C@H](C)NC(=O)[C@H](CC(=O)O)NC(=O)[C@H](CC(=O)O)NC1=O)NC(=O)[C@H](C)NC(=O)[C@H](CC(=O)O)NC2=O (stereo partly drawn) [I-248, Ac-PL3-Asp-Ala-B5-Asp-Asp-Ala-Ala-Phe-Val-S8-3F3MeF-Trp-Gln-NH2] | 2.263 | 2.83 | 
4 | CC(=O)NC(C)(C)C(=O)N[C@@H](CC(=O)O)C(=O)N[C@@H](C)C(=O)N[C@]1(C)CCCCCCC=CCOC(=O)N2CC[C@@](C(=O)N[C@@H](Cc3ccccc3)C(=O)N[C@@H](Cc3c[nH]c4ccccc34)C(=O)NC(C)(C)C(N)=O)(C2)NC(=O)[C@H](C(C)C)NC(=O)[C@H](Cc2ccccc2)NC(=O)[C@H](C)NC(=O)[C@H](C)NC(=O)[C@H](CCC(=O)O)NC(=O)[C@H](CC(=O)O)NC1=O [I-160, Ac-Aib-Asp-Ala-R8-Asp-Glu-Ala-Ala-Phe-Val-PyrS-Phe-Trp-Aib-NH2] | 1.49 | 3.24 | 
5 | CC(=O)N1CCC[C@]12CC=CCCCC1(CCCC=CCCCCCC[C@@](C)(C(=O)N[C@@H](Cc3cccc(C(F)(F)F)c3)C(=O)N[C@@H](Cc3c[nH]c4ccccc34)C(=O)N[C@@H](CCC(N)=O)C(N)=O)NC(=O)[C@H](C(C)C)NC(=O)[C@H](Cc3ccccc3)NC(=O)[C@H](C)NC(=O)[C@H](C)NC(=O)[C@H](CC(=O)O)NC(=O)[C@H](CC(=O)O)NC1=O)NC(=O)[C@H](C)NC(=O)[C@H](CC(=O)O)NC2=O (stereo partly drawn) [I-250, Ac-PL3-Asp-Ala-B5-Asp-Asp-Ala-Ala-Phe-Val-S8-3F3MeF-Trp-Gln-NH2] | 2.299 | 1.2 | 
6 | CC(=O)N1CCC[C@]12CC=CCCCC1(CCCC=CCCCCCC[C@@](C)(C(=O)N[C@@H](Cc3ccccc3)C(=O)N[C@@H](Cc3csc4ccccc34)C(=O)N[C@@H](CCC(N)=O)C(N)=O)NC(=O)[C@H](C(C)C)NC(=O)[C@H](Cc3ccccc3)NC(=O)[C@H](C)NC(=O)[C@H](C)NC(=O)[C@H](Cc3ccc4ccccc4c3)NC(=O)[C@H](CC(=O)O)NC1=O)NC(=O)[C@H](C)NC(=O)[C@H](CC(=O)O)NC2=O (stereo partly drawn) [I-297, Ac-PL3-Asp-Ala-B5-Asp-2NapA-Ala-Ala-Phe-Val-S8-Phe-BztA-Gln-NH2] |  | 5.81 | 3.29
7 | CC(=O)N1CCC[C@]12CC=CCCCC1(CCCC=CCCCCCC[C@@](C)(C(=O)N[C@@H](Cc3ccccc3)C(=O)N[C@@H](Cc3c[nH]c4ccccc34)C(=O)N[C@@H](CCC(N)=O)C(N)=O)NC(=O)[C@H](C(C)C)NC(=O)[C@H](Cc3ccccc3)NC(=O)[C@H](C)NC(=O)[C@H](C)NC(=O)[C@H](Cc3c[nH]c4ccccc34)NC(=O)[C@H](CC(=O)O)NC1=O)NC(=O)[C@H](C)NC(=O)[C@H](CC(=O)O)NC2=O (stereo partly drawn) [I-233, Ac-PL3-Asp-Ala-B5-Asp-Trp-Ala-Ala-Phe-Val-S8-Phe-Trp-Gln-NH2] |  | 5.9 | 2.82
8 | CC(=O)N1CCC[C@]12CC=CCCCC1(CCCC=CCCCCCC[C@@](C)(C(=O)N[C@@H](Cc3ccccc3)C(=O)N[C@@H](Cc3c[nH]c4ccc(C(F)(F)F)cc34)C(=O)N[C@@H](CCC(N)=O)C(N)=O)NC(=O)[C@H](C(C)C)NC(=O)[C@H](Cc3ccccc3)NC(=O)[C@H](C)NC(=O)[C@H](C)NC(=O)[C@H](CCC(=O)O)NC(=O)[C@H](CC(=O)O)NC1=O)NC(=O)[C@H](C)NC(=O)[C@H](CC(=O)O)NC2=O (stereo partly drawn) [I-169, Ac-PL3-Asp-Ala-B5-Asp-Glu-Ala-Ala-Phe-Val-S8-Phe-5CF3W-Gln-NH2] |  | 9.21 | 2.18
9 | CC(=O)N[C@@H](Cc1ccccc1)C(=O)N[C@@H](CC(=O)O)C(=O)N[C@@H](C)C(=O)N[C@]1(C)CCCCCCC=CCOC(=O)N2CC[C@@](C(=O)N[C@@H](Cc3ccccn3)C(=O)N[C@@H](Cc3c[nH]c4ccccc34)C(=O)N[C@@H](CCC(N)=O)C(N)=O)(C2)NC(=O)[C@H](C(C)C)NC(=O)[C@H](Cc2ccccc2)NC(=O)[C@H](C)NC(=O)[C@H](C)NC(=O)[C@H](CC(=O)O)NC(=O)[C@H](CC(=O)O)NC1=O [I-81, Ac-Phe-Asp-Ala-R8-Asp-Asp-Ala-Ala-Phe-Val-PyrS-2PyrA-Trp-Gln-NH2] | 1.063 | 9.77 | 
10 | CC(=O)N[C@@H](Cc1ccccc1)C(=O)N[C@@H](CC(=O)O)C(=O)N[C@@H](C)C(=O)N[C@]1(C)CCCCCCC=CCOC(=O)N2CC[C@@](C(=O)N[C@@H](Cc3ccc(C(N)=O)cc3)C(=O)N[C@@H](Cc3c[nH]c4ccccc34)C(=O)N[C@@H](CCC(N)=O)C(N)=O)(C2)NC(=O)[C@H](C(C)C)NC(=O)[C@H](Cc2ccccc2)NC(=O)[C@H](C)NC(=O)[C@H](C)NC(=O)[C@H](CC(=O)O)NC(=O)[C@H](CC(=O)O)NC1=O [I-89, Ac-Phe-Asp-Ala-R8-Asp-Asp-Ala-Ala-Phe-Val-PyrS-4CBMF-Trp-Gln-NH2] | 0.967 | 5.64 | 
11 | CC(=O)N1CCC[C@]12CC=CCCCC1(CCCC=CCCCCCC[C@@](C)(C(=O)N[C@@H](Cc3ccccc3)C(=O)N[C@@H](Cc3c[nH]c4ccccc34)C(=O)N[C@@H](CCC(N)=O)C(N)=O)NC(=O)[C@H](C(C)C)NC(=O)[C@H](Cc3ccccc3)NC(=O)[C@H](C)NC(=O)[C@H](C)NC(=O)[C@H](Cc3ccc4ccccc4c3)NC(=O)[C@H](CC(=O)O)NC1=O)NC(=O)[C@H](C)NC(=O)[C@H](CC(=O)O)NC2=O (stereo partly drawn) [I-232, Ac-PL3-Asp-Ala-B5-Asp-2NapA-Ala-Ala-Phe-Val-S8-Phe-Trp-Gln-NH2] |  | 7.64 | 3.04
12 | CC(=O)N1CCC[C@]12CC=CCCCC1(CCCC=CCCCCCC[C@@](C)(C(=O)N[C@@H](Cc3ccccc3)C(=O)N[C@@H](Cc3c[nH]c4ccccc34)C(=O)N[C@@H](CCC(N)=O)C(N)=O)NC(=O)[C@H](C(C)C)NC(=O)[C@H](Cc3cccc(C(F)(F)F)c3)NC(=O)[C@H](C)NC(=O)[C@H](C)NC(=O)[C@H](CC(=O)O)NC(=O)[C@H](CC(=O)O)NC1=O)NC(=O)[C@H](C)NC(=O)[C@H](CC(=O)O)NC2=O (stereo partly drawn) [I-237, Ac-PL3-Asp-Ala-B5-Asp-Asp-Ala-Ala-3F3MeF-Val-S8-Phe-Trp-Gln-NH2] | 2.067 | 0.384 | 
13 | CC(=O)N1CCC[C@]12CC=CCCCC1(CCCC=CCCCCCC[C@@](C)(C(=O)N[C@@H](Cc3ccccc3)C(=O)N[C@@H](Cc3c[nH]c4ccccc34)C(=O)N[C@@H](CCC(N)=O)C(N)=O)NC(=O)[C@H](C(C)C)NC(=O)[C@H](Cc3ccccc3)NC(=O)[C@H](C)NC(=O)[C@H](C)NC(=O)[C@H](CCC(=O)O)NC(=O)[C@H](CC(=O)O)NC1=O)NC(=O)[C@H](C)NC(=O)[C@H](Cc1ccccc1)NC2=O (stereo partly drawn) [I-201, Ac-PL3-Phe-Ala-B5-Asp-Glu-Ala-Ala-Phe-Val-S8-Phe-Trp-Gln-NH2] |  | 6.16 | 2.94
14 | CC(=O)N1CCC[C@]12CC=CCCCC1(CCCC=CCCCCCC[C@@](C)(C(=O)N[C@@H](Cc3ccccc3)C(=O)N[C@@H](Cc3c[nH]c4ccccc34)C(=O)N[C@@H](CCC(N)=O)C(N)=O)NC(=O)[C@H](C(C)C)NC(=O)[C@H](Cc3ccccc3)NC(=O)[C@H](C)NC(=O)[C@H](C)NC(=O)[C@H](CCC(=O)O)NC(=O)[C@H](CCc3ccccc3)NC1=O)NC(=O)[C@H](C)NC(=O)[C@H](CC(=O)O)NC2=O (stereo partly drawn) [I-197, Ac-PL3-Asp-Ala-B5-hPhe-Glu-Ala-Ala-Phe-Val-S8-Phe-Trp-Gln-NH2] | 3.809 | 6.15 | 
